Measurements: PubChem BioAssay (NCI)
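Protocol summary: plate cells (96-well), add compound at 5 concentrations, incubate 48 h, interpolate endpoints linearly. TGI denotes the concentration required for complete inhibition of growth.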

Tests used:
Experiment in all cases: growth of human tumour cells (NCI), 48 h
LXFL 529 NSCLC = test system: LXFL 529 NSCLC
NCI-H522 lung = test system: NCI-H522 lung
CAKI-1 renal = test system: CAKI-1 renal
ACHN renal = test system: ACHN renal
NCI-H460 lung = test system: NCI-H460 lung
M19-MEL melanoma = test system: M19-MEL melanoma
SN12C renal = test system: SN12C renal
K-562 leukemia = test system: K-562 leukemia
RXF 393 renal = test system: RXF 393 renal
DMS 114 small cell lung = test system: DMS 114 small cell lung
SF-295 CNS = test system: SF-295 CNS
SF-268 CNS = test system: SF-268 CNS
HT29 colon = test system: HT29 colon
SNB-19 CNS = test system: SNB-19 CNS
HOP-62 NSCLC = test system: HOP-62 NSCLC
NCI-H226 lung = test system: NCI-H226 lung
HOP-92 NSCLC = test system: HOP-92 NSCLC
SF-539 CNS = test system: SF-539 CNS
KM20L2 colon = test system: KM20L2 colon
SK-MEL-5 melanoma = test system: SK-MEL-5 melanoma
SW-620 colon = test system: SW-620 colon
DMS 273 small cell lung = test system: DMS 273 small cell lung
UACC-257 melanoma = test system: UACC-257 melanoma
OVCAR-5 ovarian = test system: OVCAR-5 ovarian
OVCAR-3 ovarian = test system: OVCAR-3 ovarian
EKVX NSCLC = test system: EKVX NSCLC
OVCAR-4 ovarian = test system: OVCAR-4 ovarian
SR leukemia = test system: SR leukemia
SK-MEL-28 melanoma = test system: SK-MEL-28 melanoma
A549 NSCLC = test system: A549 NSCLC
COLO 205 colon = test system: COLO 205 colon
HL-60(TB) leukemia = test system: HL-60(TB) leukemia
CCRF-CEM leukemia = test system: CCRF-CEM leukemia
U251 CNS = test system: U251 CNS
IGROV1 ovarian = test system: IGROV1 ovarian
M14 melanoma = test system: M14 melanoma
MALME-3M melanoma = test system: MALME-3M melanoma
UACC-62 melanoma = test system: UACC-62 melanoma
RPMI-8226 leukemia = test system: RPMI-8226 leukemia
SK-MEL-2 melanoma = test system: SK-MEL-2 melanoma
786-0 renal = test system: 786-0 renal
A498 renal = test system: A498 renal
HCC-2998 colon = test system: HCC-2998 colon
OVCAR-8 ovarian = test system: OVCAR-8 ovarian
SNB-75 CNS = test system: SNB-75 CNS
LOX IMVI melanoma = test system: LOX IMVI melanoma
TK-10 renal = test system: TK-10 renal
NCI-H23 lung = test system: NCI-H23 lung
DLD-1 colon = test system: DLD-1 colon
UO-31 renal = test system: UO-31 renal
SK-OV-3 ovarian = test system: SK-OV-3 ovarian
SNB-78 CNS = test system: SNB-78 CNS
KM12 colon = test system: KM12 colon
MOLT-4 leukemia = test system: MOLT-4 leukemia
HCT-116 colon = test system: HCT-116 colon

Measured: TGI

CC1CCC(=O)NCCCCC(=O)N1 (stereo not given)
> 100 µM: LXFL 529 NSCLC | NCI-H522 lung | CAKI-1 renal | ACHN renal | NCI-H460 lung | M19-MEL melanoma | SN12C renal | K-562 leukemia | RXF 393 renal | DMS 114 small cell lung | SF-295 CNS | SF-268 CNS | HT29 colon | SNB-19 CNS | HOP-62 NSCLC | NCI-H226 lung | HOP-92 NSCLC | SF-539 CNS | KM20L2 colon | SK-MEL-5 melanoma | SW-620 colon | DMS 273 small cell lung | UACC-257 melanoma | OVCAR-5 ovarian | OVCAR-3 ovarian | EKVX NSCLC | OVCAR-4 ovarian | SR leukemia | SK-MEL-28 melanoma | A549 NSCLC | COLO 205 colon | HL-60(TB) leukemia | CCRF-CEM leukemia | U251 CNS | IGROV1 ovarian | M14 melanoma | MALME-3M melanoma | UACC-62 melanoma | RPMI-8226 leukemia | SK-MEL-2 melanoma | 786-0 renal | A498 renal | HCC-2998 colon | OVCAR-8 ovarian | SNB-75 CNS | LOX IMVI melanoma | TK-10 renal | NCI-H23 lung | DLD-1 colon | UO-31 renal | SK-OV-3 ovarian | SNB-78 CNS | KM12 colon | MOLT-4 leukemia | HCT-116 colon
